One data set relates to HPV16-PsV. Briefly: organism not typed. The note with it: for IC50: read-out: HPV Infection IC50; for reduction of HPV-16PsV infection, fold change compared with the control of cells only: 30 μM, secondary stock. In kind it is cell-based, HPV-16.
A further data set has as its system 293FT cells. Nature of the data set: cells. In kind it is cell-based, Human. The note with it: for IC50: read-out: 293FT Cell Viability IC50; for cell viability IC50: control validation, known inhibitor.
A short description of another data set: in vitro. In kind it is cell-based, Human. The settings on record: human.
A further data set deals with SV40 promoter. Nature of the data set: SV40 promoter transfection in 293FT cells. In kind it is cell-based. The settings on record: 30.0 μM, vs SV40 with no drug; data not shown.

Where two headings read alike, the source gives them in different places.

In the case of `Cc1nccn1CC1CCc2c(c3ccccc3n2C)C1=O` (centres unmarked) [Ondansetron], the IC50 with HPV16-PsV (72 h) is 5000 nM.
As to `N=c1ccn2c(n1)O[C@H]1[C@H](O)[C@@H](CO)O[C@H]12` [Ancitabine], the figures for the half-inhibitory concentration (IC50) with 293FT cells (Homo sapiens) and in the data set on HPV16-PsV (72 h) were 5 µM and < 7 nM, respectively.
Turning to `N=C(N)c1ccc(OCCCCCOc2ccc(C(=N)N)cc2)cc1` [Pentamidine], the results for the IC50 in the data set on 293FT cells (Homo sapiens) and in the data set on HPV16-PsV (72 h) were 9 µM and 2000 nM, respectively. For the same compound, the cellular cytotoxicity in the data set on 293FT cells (human) is < 10.0%. For the same compound, the viability at 30 µM in “in vitro” is > 95%. In the data set on SV40 promoter, the “effect on SV40 promoter activity” value is “did not significantly affect”. Besides, the “reduction of HPV-16PsV infection, fold change compared with the control of cells only” value in the data set with HPV16-PsV is recorded as “twofold”.
For `O=c1[nH]c(=O)n([C@H]2C[C@H](O)[C@@H](CO)O2)cc1F` [Fluorodeoxyuridine], the figures for the IC50 in the data set with 293FT cells and with HPV16-PsV were 13 µM and 4000 nM, respectively.
Consider `C[C@H]1O[C@@H](n2cc(F)c(=O)[nH]c2=O)[C@H](O)[C@@H]1O` [Doxifluridine], for which the concentration for half-maximal inhibition (IC50) in the data set on 293FT cells (Homo sapiens) was determined as 16 µM; in the data set on HPV16-PsV (72 h) it was 5000 nM.
As to heparin, the “cell viability IC50” value in the data set on 293FT cells was 83.0 µg/mL. Also, in the data set on HPV16-PsV (control validation, known inhibitor), the “inhibition of HPV 16-PsV infection IC50” value amounted to 24 µg/mL.
On to `CNCCC=C1c2ccccc2CCc2ccccc21` [Nortriptyline], for which the IC50 in the data set with 293FT cells (Homo sapiens) was > 15 µM; with HPV16-PsV (72 h), 6000 nM.
Take `O=c1[nH]c(=O)n([C@H]2C[C@H](O)[C@@H](CO)O2)cc1F` [Floxuridine]: the IC50 with HPV16-PsV (72 h) was < 7 nM.
Consider `Nc1nc(Cl)nc2c1ncn2[C@H]1C[C@H](O)[C@@H](CO)O1` [Cladribine], for which the IC50 in the data set on 293FT cells (Homo sapiens) was found to be 4 µM.
As to `O=C1[O][Pt]2([NH][C@@H]3CCCC[C@H]3[NH]2)[O]C1=O` [Oxaliplatin], the IC50 in the data set with 293FT cells was determined as 8 µM; in the data set with HPV16-PsV, 1000 nM.
For the compound `COc1cc([C@@H]2c3cc4c(cc3[C@@H](O[C@@H]3O[C@@H]5CO[C@@H](C)O[C@H]5[C@H](O)[C@H]3O)[C@H]3COC(=O)[C@H]23)OCO4)cc(OC)c1O` [Etoposide], the IC50 in the data set on 293FT cells (Homo sapiens) amounted to 1 µM; in the data set with HPV16-PsV (72 h) it was 10 nM.
In the case of `O=[N+]([O-])C(Br)(CO)CO` [Bronopol], the IC50 in the data set on 293FT cells (Homo sapiens) is 7 µM; in the data set on HPV16-PsV (72 h), 3000 nM.
In the case of Carrageenan, the “cell viability IC50” value in the data set with 293FT cells was ≥ 2 µg/mL.
In the case of Bleomycin, the values for the IC50 in the data set on 293FT cells and in the data set on HPV16-PsV were 2 µM and < 7 nM, respectively.
Regarding `Cc1cc(C2CCCCC2)n(O)c(=O)c1` [Ciclopirox], the figures for the half-maximal inhibitory concentration (IC50) in the data set with 293FT cells (Homo sapiens) and in the data set with HPV16-PsV (72 h) were 8 µM and 2000 nM, respectively.
The like results for `COc1cc(NS(C)(=O)=O)ccc1Nc1c2ccccc2nc2ccccc12` [Amsacrine] were, in that order, 1 µM and 10 nM.
As to `Nc1nc(Cl)nc2c1ncn2[C@@H]1O[C@H](CO)[C@@H](O)[C@@H]1F` [Clofarabine], in the data set with 293FT cells (Homo sapiens), the IC50 worked out at 2 µM.
In the case of `CC[C@@]1(O)C(=O)OCc2c1cc1n(c2=O)Cc2cc3c([N+](=O)[O-])cccc3nc2-1` [Rubitecan], the IC50 in the data set with HPV16-PsV (72 h) was found to be 800 nM.
With `O=c1[nH]cc(F)c(=O)[nH]1` [Fluorouracil], the values for the half-inhibitory concentration (IC50) in the data set on 293FT cells (Homo sapiens) and with HPV16-PsV (72 h) were 13 µM and 1000 nM, respectively.
Consider `O=C1C=C2C=C[C@@H]3C[C@@]2(O1)[C@H]1CCCCN31` [Securinine], for which the figures for the IC50 with 293FT cells (Homo sapiens) and in the data set with HPV16-PsV (72 h) were 4 µM and 2000 nM, respectively. The cellular cytotoxicity in the data set on 293FT cells (lead drugs, triplicate) is < 10.0%. In the data set “in vitro”, the viability at 30 µM was > 95%. Further, the “effect on SV40 promoter activity” value in the data set with SV40 promoter was “did not significantly affect”. Further, the “reduction of HPV-16PsV infection, fold change compared with the control of cells only” value with HPV16-PsV is 1.5 fold.
With `Cc1cc2nc3ccc(N(C)C)cc3[s+]c2cc1N` [Tolonium chloride], the IC50 amounted to 4 µM in the data set with 293FT cells (Homo sapiens) and 2000 nM in the data set on HPV16-PsV (72 h).

As usually defined, the IC50 is the concentration that inhibits the measured activity by half. By viability is commonly meant a read-out of living cells in per cent, often relative to untreated cells. A higher viability goes with better survival.
